{"source": "the NIST ThermoML archive (doi:10.1021/je200373q)", "conditions": "101.33 kPa, Liquid, Vibrating tube method", "note": "Numbers after ± are expanded uncertainties.", "data": [{"smiles": "CCCCCCCCC", "note": "[nonane]", "values": [{"measurement": "mass density", "setting": "273.15 K", "value": "732.83 ± 0.25", "unit": "kg/m3"}, {"measurement": "mass density", "setting": "278.15 K", "value": "729.01 ± 0.25", "unit": "kg/m3"}, {"measurement": "mass density", "setting": "283.15 K", "value": "725.16 ± 0.25", "unit": "kg/m3"}, {"measurement": "mass density", "setting": "288.15 K", "value": "721.32 ± 0.25", "unit": "kg/m3"}, {"measurement": "mass density", "setting": "293.15 K", "value": "717.45 ± 0.25", "unit": "kg/m3"}, {"measurement": "mass density", "setting": "298.15 K", "value": "713.58 ± 0.25", "unit": "kg/m3"}, {"measurement": "mass density", "setting": "303.15 K", "value": "709.69 ± 0.25", "unit": "kg/m3"}, {"measurement": "mass density", "setting": "308.15 K", "value": "705.78 ± 0.25", "unit": "kg/m3"}, {"measurement": "mass density", "setting": "313.15 K", "value": "701.86 ± 0.25", "unit": "kg/m3"}, {"measurement": "mass density", "setting": "318.15 K", "value": "697.91 ± 0.25", "unit": "kg/m3"}, {"measurement": "mass density", "setting": "323.15 K", "value": "693.95 ± 0.25", "unit": "kg/m3"}, {"measurement": "mass density", "setting": "328.15 K", "value": "689.97 ± 0.25", "unit": "kg/m3"}, {"measurement": "mass density", "setting": "333.15 K", "value": "685.97 ± 0.25", "unit": "kg/m3"}, {"measurement": "mass density", "setting": "338.15 K", "value": "681.94 ± 0.25", "unit": "kg/m3"}, {"measurement": "mass density", "setting": "343.15 K", "value": "677.88 ± 0.25", "unit": "kg/m3"}, {"measurement": "mass density", "setting": "348.15 K", "value": "673.91 ± 0.25", "unit": "kg/m3"}, {"measurement": "mass density", "setting": "353.15 K", "value": "669.71 ± 0.26", "unit": "kg/m3"}, {"measurement": "mass density", "setting": "358.15 K", "value": "665.58 ± 0.26", "unit": "kg/m3"}, {"measurement": "mass density", "setting": "363.15 K", "value": "661.14 ± 0.26", "unit": "kg/m3"}]}, {"smiles": "CCCCCCCC", "note": "[octane]", "values": [{"measurement": "mass density", "setting": "273.15 K", "value": "718.25 ± 0.25", "unit": "kg/m3"}, {"measurement": "mass density", "setting": "278.15 K", "value": "714.31 ± 0.25", "unit": "kg/m3"}, {"measurement": "mass density", "setting": "283.15 K", "value": "710.34 ± 0.25", "unit": "kg/m3"}, {"measurement": "mass density", "setting": "288.15 K", "value": "706.35 ± 0.25", "unit": "kg/m3"}, {"measurement": "mass density", "setting": "293.15 K", "value": "702.35 ± 0.25", "unit": "kg/m3"}, {"measurement": "mass density", "setting": "298.15 K", "value": "698.34 ± 0.25", "unit": "kg/m3"}, {"measurement": "mass density", "setting": "303.15 K", "value": "694.3 ± 0.25", "unit": "kg/m3"}, {"measurement": "mass density", "setting": "308.15 K", "value": "690.24 ± 0.25", "unit": "kg/m3"}, {"measurement": "mass density", "setting": "313.15 K", "value": "686.17 ± 0.25", "unit": "kg/m3"}, {"measurement": "mass density", "setting": "318.15 K", "value": "682.06 ± 0.25", "unit": "kg/m3"}, {"measurement": "mass density", "setting": "323.15 K", "value": "677.94 ± 0.25", "unit": "kg/m3"}, {"measurement": "mass density", "setting": "328.15 K", "value": "673.79 ± 0.25", "unit": "kg/m3"}, {"measurement": "mass density", "setting": "333.15 K", "value": "669.61 ± 0.26", "unit": "kg/m3"}, {"measurement": "mass density", "setting": "338.15 K", "value": "665.4 ± 0.26", "unit": "kg/m3"}, {"measurement": "mass density", "setting": "343.15 K", "value": "661.16 ± 0.26", "unit": "kg/m3"}, {"measurement": "mass density", "setting": "348.15 K", "value": "656.88 ± 0.26", "unit": "kg/m3"}, {"measurement": "mass density", "setting": "353.15 K", "value": "652.57 ± 0.26", "unit": "kg/m3"}, {"measurement": "mass density", "setting": "358.15 K", "value": "648.23 ± 0.26", "unit": "kg/m3"}, {"measurement": "mass density", "setting": "363.15 K", "value": "643.83 ± 0.26", "unit": "kg/m3"}]}]}
